Test in all cases: radiometric protein kinase assay (33PanQinase Activity Assay)
Assay type in all cases: biochemical
What all share (details): singlicate, read-out: residual activity

One assay has as its target T1, EGF-R G719C (Homo sapiens, UniProt P00533, G719C).
T1 construct: GST or His (not specified per kinase); purchased ProQinase (panel service); host or cells: Sf9 insect cells or E. coli
The procedure: (§1) In a first experiment, the kinase inhibition profile of the compound of formula (1) was evaluated at Proqinase (http://www.proqinase.com) by measuring residual activity values at a concentration of 10 µM of the test compound in singlicate in front of the following kinases: ABL2, EPHA3, CSF1-R, DDR2 wt, DDR2 N456 S, EGF-R d746-750, EGF-R d747-752/P753S, EGF-R G719C, EGF-R G719S, EGF-R L858R, EGF-R L861Q, EGF-R wt, EPHA1, EPHA2, EPHB1, ERBB4, LCK, MINK1, RAF1 Y340D/Y341D (untagged), RIPK2, STK17A. In a second experiment, the kinase inhibition profile of the compound of formula (1) was evaluated at Proqinase (http://www.proqinase.com) by measuring residual activity values at a concentration of 0.5 and 10 µM of the test compound in singlicate in front of a panel of 300 kinases using the following protocol:
(§2) The compounds were dissolved to 1 x 10^-03 M stock solutions in 100% DMSO. Subsequently, 100 µl of each stock solution were transferred into wells A3-F12 of a microtiter plate ("master plate"). Wells A1-F2 were filled with 100 µl 100% DMSO as controls. 5 x 10 µl of the master plate were aliquoted into 5 copy plates, which were stored at -20° Celsius until use. For the testing of each group of up to 8 kinases, one copy plate was used.
(§3) In the process, 90 µl H2O were added to each well of a copy plate. To minimize precipitation, the H2O was added to each well only a few minutes before the transfer of the compound solutions into the assay plates. The plate was shaken thoroughly, resulting in a "compound dilution plate" with a compound concentration of 1 x 10^-04 M/10 % DMSO. This plate was used for the transfer of 5 µl compound solution into the assay plates. The final volume of the assay was 50 µl. All compounds were tested at 1 x 10^-05 M in singlicate. The final DMSO concentration in the reaction cocktails was 1 % in all cases. The compound dilution plates were disposed at the end of each working day.
(§4) A radiometric protein kinase assay (^33PanQinase® Activity Assay) was used for measuring the kinase activity of the corresponding protein kinases. All kinase assays were performed in 96-well FlashPlatesTM from Perkin Elmer (Boston, MA, USA) in a 50 µl reaction volume. The reaction cocktail was pipetted in 4 steps in the following order: • 10 µl of non-radioactive ATP solution (in H2O) • 25 µl of assay buffer/ [γ-33P]-ATP mixture • 5 µl of test sample in 10% DMSO • 10 µl of enzyme/substrate mixture
(§5) The protein kinase reaction cocktails were incubated at 30°C for 60 minutes. The reaction was stopped with 50 µl of 2 % (v/v) H3PO4, plates were aspirated and washed two times with 200 µl 0.9 % (w/v) NaCl. All assays were performed with a BeckmanCoulter Biomek 2000/SL robotic system. Incorporation of ^33Pi (counting of "cpm") was determined with a microplate scintillation counter (Microbeta, Wallac).
(§6) All protein kinase assays were performed with a BeckmanCoulter Core robotic system.
(§7) All protein kinases provided by ProQinase were expressed in Sf9 insect cells or in E.coli as recombinant GST-fusion proteins or His-tagged proteins. All kinases were produced from human cDNAs and purified by either GSH-affinity chromatography or immobilized metal. Affinity tags were removed from a number of kinases during purification. The purity of the protein kinases was examined by SDS-PAGE/Coomassie staining, the identity was checked by mass spectroscopy.
(§8) Kinases from external vendors (CAR = Carna Biosciences Inc.; INV = Life Technologies (Invitrogen Corporation); MIL = Merck-Millipore (Millipore Corporation)) were expressed, purified and quality-controlled by virtue of the vendors readings.
(§9) For each kinase, the median value of the cpm of six wells of column 1 of each assay plate was defined as "low control" (n=6). This value reflects unspecific binding of radioactivity to the plate in the absence of a protein kinase but in the presence of the substrate. […]

A further assay concerns the target T2, EPHA2 (Homo sapiens, UniProt P29317).
T2 construct: GST or His (not specified per kinase); purchased ProQinase (panel service); host or cells: Sf9 insect cells or E. coli
The procedure: as §1, §2, §3, §4, §5, §6, §7, §8, §9

The target of assay [1] is T3, RAF1 Y340D/Y341D (untagged) (Homo sapiens, UniProt P04049, Y340D/Y341D).
T3 construct: purchased ProQinase (panel service); host or cells: Sf9 insect cells or E. coli
The procedure:
as §1, §2, §3, §4, §5, §6, §7, §8, §9

Molecules are shown by their SMILES.

T3 sequence (P04049 whole entry Y340D/Y341D): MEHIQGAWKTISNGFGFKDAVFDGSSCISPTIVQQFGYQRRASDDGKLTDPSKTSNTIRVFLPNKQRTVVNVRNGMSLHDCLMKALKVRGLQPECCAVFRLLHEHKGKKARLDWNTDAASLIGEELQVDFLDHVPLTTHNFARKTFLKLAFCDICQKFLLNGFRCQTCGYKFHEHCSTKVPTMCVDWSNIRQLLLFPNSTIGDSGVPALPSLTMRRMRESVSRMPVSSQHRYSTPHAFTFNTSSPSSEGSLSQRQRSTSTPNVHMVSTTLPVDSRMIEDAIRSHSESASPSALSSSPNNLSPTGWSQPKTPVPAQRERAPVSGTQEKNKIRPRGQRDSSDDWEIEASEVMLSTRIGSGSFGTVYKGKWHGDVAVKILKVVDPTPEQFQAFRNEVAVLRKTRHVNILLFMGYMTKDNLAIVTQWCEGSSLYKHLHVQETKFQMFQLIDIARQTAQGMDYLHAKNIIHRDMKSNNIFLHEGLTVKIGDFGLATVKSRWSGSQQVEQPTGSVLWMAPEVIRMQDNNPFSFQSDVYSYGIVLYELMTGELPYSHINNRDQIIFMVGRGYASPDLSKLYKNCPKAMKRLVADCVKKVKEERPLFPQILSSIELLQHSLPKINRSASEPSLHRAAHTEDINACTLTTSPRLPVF
T1 sequence (P00533 25-1210 G719C): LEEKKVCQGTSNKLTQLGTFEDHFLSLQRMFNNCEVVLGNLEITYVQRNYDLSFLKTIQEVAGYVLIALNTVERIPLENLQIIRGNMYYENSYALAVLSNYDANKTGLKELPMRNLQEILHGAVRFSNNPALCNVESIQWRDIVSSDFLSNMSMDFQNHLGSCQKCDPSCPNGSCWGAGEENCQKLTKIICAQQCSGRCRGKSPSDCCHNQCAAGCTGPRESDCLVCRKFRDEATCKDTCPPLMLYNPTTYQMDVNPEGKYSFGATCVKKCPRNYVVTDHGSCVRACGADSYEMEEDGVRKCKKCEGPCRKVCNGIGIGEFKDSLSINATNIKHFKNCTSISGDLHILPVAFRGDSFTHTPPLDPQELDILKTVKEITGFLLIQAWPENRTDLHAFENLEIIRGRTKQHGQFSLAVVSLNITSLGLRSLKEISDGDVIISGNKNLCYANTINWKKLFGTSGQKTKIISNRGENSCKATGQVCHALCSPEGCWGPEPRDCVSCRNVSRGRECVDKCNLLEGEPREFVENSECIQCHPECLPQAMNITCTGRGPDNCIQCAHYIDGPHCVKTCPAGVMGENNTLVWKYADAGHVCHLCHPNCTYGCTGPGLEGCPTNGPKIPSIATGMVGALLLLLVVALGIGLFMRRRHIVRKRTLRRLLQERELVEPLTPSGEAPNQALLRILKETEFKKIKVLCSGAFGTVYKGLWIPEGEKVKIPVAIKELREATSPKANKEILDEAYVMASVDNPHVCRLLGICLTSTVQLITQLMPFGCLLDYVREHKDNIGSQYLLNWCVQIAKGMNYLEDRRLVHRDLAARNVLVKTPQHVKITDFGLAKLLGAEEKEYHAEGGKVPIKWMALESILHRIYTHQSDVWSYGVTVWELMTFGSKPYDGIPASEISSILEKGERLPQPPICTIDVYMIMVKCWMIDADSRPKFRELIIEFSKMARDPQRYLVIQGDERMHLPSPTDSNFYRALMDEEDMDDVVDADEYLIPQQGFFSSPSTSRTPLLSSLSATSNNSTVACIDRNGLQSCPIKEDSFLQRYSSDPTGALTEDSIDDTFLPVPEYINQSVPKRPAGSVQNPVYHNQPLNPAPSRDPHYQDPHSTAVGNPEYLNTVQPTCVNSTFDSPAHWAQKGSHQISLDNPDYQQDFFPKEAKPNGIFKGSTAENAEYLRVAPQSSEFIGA
T2 sequence (P29317 24-976): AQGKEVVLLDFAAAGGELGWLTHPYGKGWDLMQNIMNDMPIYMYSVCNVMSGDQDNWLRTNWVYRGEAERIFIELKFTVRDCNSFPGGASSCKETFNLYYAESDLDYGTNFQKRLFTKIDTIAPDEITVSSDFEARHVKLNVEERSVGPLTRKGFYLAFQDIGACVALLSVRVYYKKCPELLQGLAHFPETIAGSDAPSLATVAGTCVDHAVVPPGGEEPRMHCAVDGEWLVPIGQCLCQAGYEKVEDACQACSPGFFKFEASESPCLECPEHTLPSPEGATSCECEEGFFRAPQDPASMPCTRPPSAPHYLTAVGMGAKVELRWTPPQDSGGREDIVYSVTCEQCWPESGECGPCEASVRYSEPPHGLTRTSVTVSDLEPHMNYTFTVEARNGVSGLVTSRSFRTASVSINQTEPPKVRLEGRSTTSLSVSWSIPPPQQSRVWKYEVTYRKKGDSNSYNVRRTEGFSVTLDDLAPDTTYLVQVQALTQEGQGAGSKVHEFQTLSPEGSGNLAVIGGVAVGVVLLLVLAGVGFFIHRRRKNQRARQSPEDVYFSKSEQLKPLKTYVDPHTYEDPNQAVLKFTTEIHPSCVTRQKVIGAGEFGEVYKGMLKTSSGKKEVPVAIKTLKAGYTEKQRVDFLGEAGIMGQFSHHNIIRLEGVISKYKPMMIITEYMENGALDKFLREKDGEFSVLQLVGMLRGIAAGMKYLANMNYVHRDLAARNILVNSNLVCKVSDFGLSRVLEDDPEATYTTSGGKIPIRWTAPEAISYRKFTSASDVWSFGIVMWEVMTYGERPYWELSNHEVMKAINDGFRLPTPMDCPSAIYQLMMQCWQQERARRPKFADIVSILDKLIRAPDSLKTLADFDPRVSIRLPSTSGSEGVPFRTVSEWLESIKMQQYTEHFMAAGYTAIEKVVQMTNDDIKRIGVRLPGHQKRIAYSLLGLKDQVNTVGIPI

As for `Cn1c(=O)c(-c2c(Cl)cccc2Cl)cc2c(N)nc(Nc3ccccc3)nc21` [Compound (1), 4-amino-6-(2,6-dichlorophenyl)-8-methyl-2-(phenylamino)-pyrido[2,3-d]pyrimidin-7(8H)-one], the remaining activity at 0.5 µM on EGF-R G719C (0.5 µM test compound) was 29%; at EPHA2 (0.5 µM test compound), 54%; in assay [1] (0.5 µM test compound), 57%. Moreover, the figures for the remaining activity at 10 µM (at EGF-R G719C (10 µM test compound); at EPHA2 (10 µM test compound); in assay [1] (10 µM test compound)) were 6%, 9% and 25%, respectively.

Values taken from patent EP3120851A1, “4-AMINO-6-(2,6-DICHLOROPHENYL)-8-METHYL-2-(PHENYLAMINO)-PYRIDO[2,3-D]PYRIMIDIN-7(8H)-ONE FOR TREATMENT OF SOLID CANCERS” (Pangaea Biotech S.L., priority 2015, dated 2017).
